From patent US20070161542A1, “Ptb1b photoprobes” (priority 2003, published 2007)

Legend:
Format in all cases: biochemical
Flag-TCPTP = biological target: T1, Flag-TCPTP (Homo sapiens, UniProt P17706); test: Enzyme kinetic assay (DiFMUP), Flag-TCPTP; conditions: in the dark, 10 μM DiFMUP
T1 construct: Flag-TCPTP (residues 1-281 as a flag fusion); made in house
T1 sequence (P17706 1-281): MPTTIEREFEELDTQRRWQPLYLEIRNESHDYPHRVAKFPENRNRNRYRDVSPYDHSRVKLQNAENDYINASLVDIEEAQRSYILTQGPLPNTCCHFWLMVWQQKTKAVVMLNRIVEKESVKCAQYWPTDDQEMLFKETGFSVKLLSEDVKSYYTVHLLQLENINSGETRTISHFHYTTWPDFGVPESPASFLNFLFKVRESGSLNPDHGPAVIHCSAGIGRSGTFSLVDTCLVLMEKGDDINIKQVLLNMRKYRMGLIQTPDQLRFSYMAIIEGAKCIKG
Source text: (§1) Protein tyrosine phosphatases used in this study were expressed and purified using published procedures, as follows: (a) Flag-PTP1B (residues 1-320 as a flag fusion), Huyer et al. (29). (b) Flag-TCPTP (residues 1-281 as a flag fusion), Asante-Appiah et al. (30). (c) Flag-CD45 (residues 556-1268 as a flag fusion), Wang et al. (31). (d) Mutant C215S-PTP1B (residues 1-320 as a gst fusion), Skorey et al. (28). (e) Infected SF9 cell lysate expressing full-length PTP1B (as a flag fusion), Cromlish et al. (25). For studies using H2O2-inactivated Flag-PTP1B, 100 μl of 2 μg/ml PTP1B was incubated with 100 μl of 1 mM or 20 mM H2O2 for 15 min to obtain 50% or 100% inactivated enzyme respectively as determined by the enzyme kinetic assay.
(§2) Kinetic measurements were performed using a Spectromax Gemini fluorescent plate reader (Molecular Devices, Sunnyvale, Calif.) in a 96-well plate format. […] The conversion of DiFMUP to DiFMU was monitored continuously for 5 min with excitation at 360 nm and emission at 450 nm (cutoff filter at 435 nm). […] Ki values were determined by non-linear regression fit of the initial rates versus substrate concentration at various inhibitor concentrations using the kinetic equation software from Grafit software (Erithacus Software).

Flag-CD45 = biological target: T2, Flag-CD45 (Mus musculus, UniProt P06800); test: Enzyme kinetic assay (DiFMUP), Flag-CD45; conditions: Flag-CD45, in the dark, 10 μM DiFMUP
T2 construct: Flag-CD45 (residues 556-1268 as a flag fusion); made in house
T2 sequence (P06800 581-1293 limits assumed): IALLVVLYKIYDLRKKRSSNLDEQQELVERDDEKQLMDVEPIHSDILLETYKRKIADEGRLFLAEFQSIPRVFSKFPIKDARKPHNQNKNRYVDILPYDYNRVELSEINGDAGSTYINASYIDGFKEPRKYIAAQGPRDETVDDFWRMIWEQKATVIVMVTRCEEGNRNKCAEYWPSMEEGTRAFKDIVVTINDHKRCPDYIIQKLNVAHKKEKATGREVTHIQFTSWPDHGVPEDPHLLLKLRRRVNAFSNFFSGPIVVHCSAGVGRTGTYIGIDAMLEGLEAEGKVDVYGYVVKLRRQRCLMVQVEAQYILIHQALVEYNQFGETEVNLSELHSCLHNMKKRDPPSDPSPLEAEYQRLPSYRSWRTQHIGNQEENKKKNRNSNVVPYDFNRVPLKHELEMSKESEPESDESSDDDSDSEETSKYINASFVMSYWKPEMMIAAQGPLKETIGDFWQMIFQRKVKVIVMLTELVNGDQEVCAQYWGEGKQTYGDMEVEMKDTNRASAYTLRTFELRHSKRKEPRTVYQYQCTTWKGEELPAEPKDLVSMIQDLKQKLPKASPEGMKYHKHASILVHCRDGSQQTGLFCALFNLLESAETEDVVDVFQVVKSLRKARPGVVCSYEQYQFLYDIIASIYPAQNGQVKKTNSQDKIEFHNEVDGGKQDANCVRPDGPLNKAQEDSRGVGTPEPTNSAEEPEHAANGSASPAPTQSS
Source text: as §1, §2

Flag-PTP1B(1-320) = biological target: T3, Flag-PTP1B(1-320) (Homo sapiens, UniProt P18031); test: Enzyme kinetic assay (DiFMUP), Flag-PTP1B; conditions: for IC50 shift in the presence of 0.1% protein: 0.1% protein (HSA) vs none; for IC50: in the dark; for Ki: non-irradiated probes, competitive, reversible inhibitors of PTP1B
T3 construct: Flag-PTP1B (residues 1-320 as a flag fusion); made in house
T3 sequence (P18031 1-320): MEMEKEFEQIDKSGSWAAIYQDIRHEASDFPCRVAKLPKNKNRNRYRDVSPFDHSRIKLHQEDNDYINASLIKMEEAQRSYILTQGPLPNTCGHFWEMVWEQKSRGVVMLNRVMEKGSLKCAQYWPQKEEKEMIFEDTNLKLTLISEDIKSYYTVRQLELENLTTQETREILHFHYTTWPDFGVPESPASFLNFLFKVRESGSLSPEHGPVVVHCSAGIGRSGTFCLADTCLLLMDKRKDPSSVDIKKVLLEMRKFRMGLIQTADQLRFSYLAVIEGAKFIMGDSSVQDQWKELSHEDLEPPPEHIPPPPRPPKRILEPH
Source text: as §1
Kinetic measurements were performed using a Spectromax Gemini fluorescent plate reader (Molecular Devices, Sunnyvale, Calif.) in a 96-well plate format. Briefly, to 170 μl of BisTris buffer (50 mM BisTris, with and without 150 mM NaCl, 2 mM EDTA, 5 mM DMH, pH 6.3) containing 0-100 μM DiFMUP with or without 0.1% human serum albumin was added 10 μl of 10 or 50 μM photoprobe in water in a three-fold serial dilution. The reaction was initiated by the addition of 20 μl of 0.04 μg/ml Flag-PTP1B, Flag-TCPTP (0.04 μg/ml) or Flag-CD45 (0.01 μg/ml) in BisTris buffer containing 20% glycerol and 0.01% Triton X-100. The conversion of DiFMUP to DiFMU was monitored continuously for 5 min with excitation at 360 nm and emission at 450 nm (cutoff filter at 435 nm). IC50 values were calculated by nonlinear regression fit of the initial rates versus inhibitor concentration obtained using 10 μM DiFMUP using the Softmax Pro software (version 3.11, Molecular Devices). Ki values were determined by non-linear regression fit of the initial rates versus substrate concentration at various inhibitor concentrations using the kinetic equation software from Grafit software (Erithacus Software).

[1] = Flag-PTP1B(1-320), 10 μM DiFMUP

IC50 (Flag-TCPTP) [nM] | IC50 (Flag-CD45) [nM] | IC50 shift in the presence of 0.1% protein (Flag-PTP1B(1-320)) | IC50 (Flag-PTP1B(1-320); Fla-PTP1B + 0.1% HSA) [nM] | IC50 (Flag-PTP1B(1-320); [1]) [nM] | Ki (Flag-PTP1B(1-320)) [nM] | Compound
0.1 | 490 | 7 fold | 1.5 | 0.2 | 0.1 | NC(=O)[C@H](Cc1ccc(C(F)(F)P(=O)(O)O)c(Br)c1)NC(=O)[C@H](Cc1ccc(C(F)(F)P(=O)(O)O)c(Br)c1)NC(=O)c1cc(I)cc(C2(C(F)(F)F)N=N2)c1 [Example 1, Tetraamnionium 3-bromo-4-(difluoro(phosphonato)methyl)-N-(3-iodo-5-(3-(trifluoromethyl)-3H-diaziren-3-yl)benzoyl)-L-phenylalanyl-3-bromo-4-(difluoro(phosphonato)methyl)-L-phenylalaninamide]
6 | 12600 | not significantly affected | 14 | 11 | 5 | NC(=O)[C@H](Cc1ccc(C(F)(F)P(=O)(O)O)cc1)NC(=O)[C@H](Cc1ccc(C(F)(F)P(=O)(O)O)cc1)NC(=O)c1cc(I)cc(C2(C(F)(F)F)N=N2)c1 [Example 9, 4-(Difluoro(phosphono)methyl)-N-(3-iodo-5-(3-(trifluoromethyl)-3H-diaziren-3-yl)benzoyl)-L-phenylalanyl-4-(difluoro(phosphono)methyl)-L-phenylalaninamide]
